Earlier results on two compounds are cited in US20070196465A1, “Treatment with dihydropyridine calcium channel blockers and omega-3 fatty acids and a combination product thereof” (priority 2005, published 2007).

Data set [1] relates to heart. The conditions noted are these: Finkel et al. 1992.
Data set [2] has as its system cells. Particulars: dihydropyridine alone.
In data set [3] the test system is L-type Ca^2+ channel. Particulars: dihydropyridine alone.

As to `COC(=O)C1=C(C)NC(C)=C([N+](=O)[O-])C1c1ccccc1C(F)(F)F` (stereo not shown) [Bay K 8644], the inotropic effect result in data set [1] is reported as “concentration-dependent positive inotrope”. Moreover, in data set [2], the “effect on calcium influx / cytosolic free calcium and cell contraction” value was “increases in calcium influx and the contracture of cells”. In data set [3], the “effect on peak L-type Ca2+ channel current, cytosolic Ca2+ and cell contraction” value was “significantly increases peak L-type Ca^2+ channel current, cytosolic Ca^2+, and cell contraction”.
With `CCCCC/C=C\C/C=C\C/C=C\C/C=C\CCCC(=O)O` [arachidonic acid], the inotropic effect result in data set [1] is “concentration-dependent negative inotropes”.
